US11091501B2, “Heterocyclic compounds as RSV inhibitors” (Enanta Pharmaceuticals, Inc., priority 2017, dated 2021)

Test system: Human RSV-A (“Long” strain)
Assay: RSV in vitro cytoprotection assay (CPE, ATPlite) in HEp-2 cells
Format: cell-based
Conditions: human respiratory syncytial virus, 96 h; HEp-2 cells, 4-day incubation, ATPlite readout; read-out: Human RSV-A (“Long” strain) EC50
Summary of the method: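 HEp-2 cells (8,000/well) given 2-fold serial compound dilutions in duplicate, then infected with sucrose-stabilised RSV-A Long stock. After 4 days, cell viability read by ATPlite luminescence, with a parallel uninfected plate for cytotoxicity. EC50 binned A<0.01 μM, B 0.01-0.05 μM, C>0.05 μM.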

Row | Compound | EC50 [nM]
1 | O=C(Nc1ccc(C(=O)N2CCc3cc(-c4nc5ccccc5[nH]4)sc3-c3ccc(Cl)cc32)cc1)c1cccnc1N1CC2(CCOCC2)C1 [Example 82] | 10 to 50
2 | Cc1cnc(N2CC3(CCOCC3)C2)c(C(=O)Nc2ccc(C(=O)N3CCc4c(sc(C(=O)Nc5ncccc5F)c4F)-c4ccccc43)cc2)c1 [Example 215] | < 10
3 | Cc1cnc(N2CC3(CCOCC3)C2)c(C(=O)Nc2ccc(C(=O)N3CCc4cc(C(=O)Nc5c(F)cccc5C(F)(F)F)sc4-c4ccc(F)cc43)cc2)c1 [Example 5] | < 10
4 | Cc1ccnc(NC(=O)c2sc3c(c2F)CCN(C(=O)c2ccc(NC(=O)c4cc(C)cnc4N4CC5(CCOCC5)C4)cc2)c2ccccc2-3)c1 [Example 227] | 10 to 50
5 | O=C(Nc1c(F)cc(F)cc1F)c1cc2c(o1)-c1ccc(F)cc1N(C(=O)c1ccc(NC(=O)c3cccnc3N3CC4(CCOCC4)C3)cc1)CC2 [Example 100] | < 10
6 | Cc1cnc(N2CC3(CCOCC3)C2)c(C(=O)Nc2ccc(C(=O)N3CCc4cc(C(=O)Nc5ccccc5F)sc4-c4ccc(F)cc43)cc2)c1 [Example 8] | < 10
7 | Cc1ccc(C(=O)Nc2ccc(C(=O)N3CCc4cc(-c5nc6ccccc6[nH]5)sc4-c4ccc(F)cc43)cc2)c(N2CC3(CCOCC3)C2)n1 [Example 147] | < 10
8 | Cc1cnc(N2CC3(CCOCC3)C2)c(C(=O)Nc2ccc(C(=O)N3CCc4c(sc(C(=O)Nc5c(F)cc(F)cc5Cl)c4F)-c4ccccc43)cc2)c1 [Example 199] | < 10
9 | O=C(Nc1ccc(C(=O)N2CCc3c(sc(C(=O)Nc4c(F)cccc4F)c3F)-c3ccccc32)cc1)c1cc2c(nc1N1CC3(CCOCC3)C1)CCC2 [Example 233] | < 10
10 | Cc1cnc(N2CC3(CCOCC3)C2)c(C(=O)Nc2ccc(C(=O)N3CCc4cc(C(=O)Nc5c(F)cc(F)cc5Cl)oc4-c4ccc(F)cc43)cc2)c1 [Example 235] | < 10
11 | Cc1cnc(N2CC3(CCOCC3)C2)c(C(=O)Nc2ccc(C(=O)N3CCc4c(sc(-c5nc6cccc(F)c6[nH]5)c4F)-c4ccccc43)cc2)c1 [Example 206] | < 10
12 | Cc1ccc(C(=O)Nc2ccc(C(=O)N3CCc4sc(C(=O)Nc5c(F)cccc5F)cc4-c4ccccc43)cc2)c(N2CC3(CCOCC3)C2)n1 [Example 265] | > 50
13 | Cc1cnc(N2CC3(CCOCC3)C2)c(C(=O)Nc2ccc(C(=O)N3CCc4cc(-c5cccnc5F)sc4-c4ccc(F)cc43)cc2)c1 [Example 164] | < 10
14 | Cc1cnc(N2CC3(CCOCC3)C2)c(C(=O)Nc2ccc(C(=O)N3CCc4cc(-c5ncco5)sc4-c4ccc(F)cc43)cc2)c1 [Example 169] | < 10
15 | Cc1cnc(N2CC3(CCOCC3)C2)c(C(=O)Nc2ccc(C(=O)N3CCc4cc(-c5ccc(F)cn5)sc4-c4ccc(F)cc43)cc2)c1 [Example 163] | < 10
16 | Cc1ccc(C(=O)Nc2ccc(C(=O)N3CCc4c(sc(NC(=O)c5c(F)cccc5Cl)c4F)-c4ccccc43)cc2)c(N2CC3(CCOCC3)C2)n1 [Example 309] | 10 to 50
17 | Cc1cnc(N2CC3(CCOCC3)C2)c(C(=O)Nc2ccc(C(=O)N3CCc4c(sc(C(=O)Nc5c(F)cccc5F)c4F)-c4ccccc43)cc2)c1 [Example 93] | < 10
18 | Cc1cnc(N2CC3(CCOCC3)C2)c(C(=O)Nc2ccc(C(=O)N3CCc4cc(-c5c[nH]c6c(C)cccc56)sc4-c4ccc(F)cc43)cc2)c1 [Example 177] | 10 to 50
19 | Cc1cnc(N2CC3(CCOCC3)C2)c(C(=O)Nc2ccc(C(=O)N3CCc4cc(-c5nnc(C)s5)sc4-c4ccc(F)cc43)cc2)c1 [Example 150] | < 10
20 | O=C(Nc1c(F)cc(F)cc1Cl)c1cc2c(s1)-c1ccc(F)cc1N(C(=O)c1ccc(NC(=O)c3cc4ccccc4nc3N3C4CCC3COC4)cc1)CC2 [Example 32] | > 50

Row | Compound | EC50 [nM]
21 | Cc1cnc(N2CC3(CCOCC3)C2)c(C(=O)Nc2ccc(C(=O)N3CCc4cc(C(=O)Nc5nnc(C)s5)sc4-c4ccc(F)cc43)cc2)c1 [Example 133] | 10 to 50
22 | O=C(Nc1c(F)cc(F)cc1Cl)c1cc2c(s1)-c1ccc(F)cc1N(C(=O)c1ccc(NC(=O)c3cc(F)cnc3N3CC4(CCOCC4)C3)cc1)CC2 [Example 26] | < 10
23 | Cc1cnc(N2CC3(CCOCC3)C2)c(C(=O)Nc2ccc(C(=O)N3CCc4cc(-c5nnnn5C5CC5)sc4-c4ccc(F)cc43)cc2)c1 [Example 194] | 10 to 50
24 | Cc1cc(C(=O)Nc2ccc(C(=O)N3CCc4cc(C(=O)Nc5c(F)cc(F)cc5Cl)sc4-c4ccc(F)cc43)cc2)c(N2CC3(CCOCC3)C2)nn1 [Example 136] | 10 to 50
25 | CCS(=O)(=O)CCN(C)c1ncccc1C(=O)Nc1ccc(C(=O)N2CCc3cc(C(=O)Nc4c(F)cccc4F)sc3-c3ccc(F)cc32)cc1 [Example 57] | > 50
26 | Cc1cnc(N2CC3(CCOCC3)C2)c(C(=O)Nc2ccc(C(=O)N3CCc4c(sc(C(=O)Nc5c(F)cccc5F)c4Cl)-c4ccccc43)cc2)c1 [Example 267] | < 10
27 | Cc1ccc(C(=O)Nc2ccc(C(=O)N3CCc4cc(C(=O)Nc5c(F)cccc5Cl)oc4-c4ccccc43)cc2)c(N2CC3(CCOCC3)C2)n1 [Example 259] | < 10
28 | O=C(Nc1c(F)cccc1F)c1cc2c(s1)-c1ccc(F)cc1N(C(=O)c1ccc(NC(=O)c3cccnc3N3CC4CCC(C3)O4)cc1)CC2 [Example 50] | 10 to 50
29 | O=C(Nc1c(F)cccc1F)c1cc2c(s1)-c1cc(F)c(F)cc1N(C(=O)c1ccc(NC(=O)c3cc(F)cnc3N3CC4(CCOCC4)C3)cc1)CC2 [Example 73] | 10 to 50
30 | Cc1cc(C(=O)Nc2ccc(C(=O)N3CCc4c(sc(C(=O)Nc5ncccc5F)c4F)-c4ccccc43)cc2)c(N2CC3(CCOCC3)C2)nc1C [Example 221] | < 10
31 | Cc1ccc(C(=O)Nc2ccc(C(=O)N3CCc4cc(C(=O)Nc5c(F)cccc5F)sc4-c4ccc(F)cc43)cc2)c(N2CC3(CCOCC3)C2)n1 [Example 110] | < 10
32 | Cc1cnc(N2CC3(CCOCC3)C2)c(C(=O)Nc2ccc(C(=O)N3CCc4cc(C(=O)NC5CCNC5)sc4-c4ccc(F)cc43)cc2)c1 (stereo not shown) [Example 129] | > 50
33 | Cc1ccc(C(=O)Nc2ccc(C(=O)N3CCc4c(sc(NC(=O)c5c(Cl)cccc5Cl)c4F)-c4ccccc43)cc2)c(N2CC3(CCOCC3)C2)n1 [Example 310] | 10 to 50
34 | Cc1cnc(N2CC3(CCOCC3)C2)c(C(=O)Nc2ccc(C(=O)N3CCc4cc(-c5nnnn5C)sc4-c4ccc(F)cc43)cc2)c1 [Example 195] | 10 to 50
35 | Cc1cnc(N2CC3(CCOCC3)C2)c(C(=O)Nc2ccc(C(=O)N3CCc4cc(C(=O)Nc5c(F)cncc5F)sc4-c4ccc(F)cc43)cc2)c1 [Example 117] | < 10
36 | Cc1cnc(N2CC3(CCOCC3)C2)c(C(=O)Nc2ccc(C(=O)N3CCc4cc(-c5nnco5)sc4-c4ccc(F)cc43)cc2)c1 [Example 141] | < 10
37 | O=C(Nc1c(F)cc(F)cc1Cl)c1cc2c(s1)-c1ccc(F)cc1N(C(=O)c1ccc(NC(=O)c3cc4ccccc4nc3N3CCCS(=O)(=O)CC3)cc1)CC2 [Example 34] | > 50
38 | Cc1cnc(N2CC3(CCOCC3)C2)c(C(=O)Nc2ccc(C(=O)N3CCc4c(sc(C(=O)Nc5ccccc5Cl)c4Cl)-c4ccccc43)cc2)c1 [Example 269] | 10 to 50
39 | O=C(Nc1c(F)cccc1F)c1cc2c(o1)-c1ccc(F)cc1N(C(=O)c1ccc(NC(=O)c3cccnc3N3CC4(CCOCC4)C3)cc1)CC2 [Example 99] | < 10
40 | Cc1cnc(N2CC3(CCOCC3)C2)c(C(=O)Nc2ccc(C(=O)N3CCc4cc(-c5ncccc5F)sc4-c4ccc(F)cc43)cc2)c1 [Example 165] | < 10
